How the values were obtained:
[1] = target: galectin-1 (Homo sapiens, UniProt P09382); assay: Fluorescence anisotropy assay, affinity for galectin-1; type: binding; settings: compound as inhibitor of the interaction between galectin and a fluorescein tagged saccharide probe; read-out: Gal-1 Kd
Description: (§1) The affinity of Example 1-39 for galectins were determined by a fluorescence anisotropy assay where the compound was used as an inhibitor of the interaction between galectin and a fluorescein tagged saccharide probe as described Sarme, P., Kahl-Knutsson, B., Huflejt, M., Nilsson, U. J., and Leffler H. (2004) Fluorescence polarization as an analytical tool to evaluate galectin-ligand interactions. Anal. Biochem. 334: 36-47, (Sarme et al., 2004) and Monovalent interactions of Galectin-1 By Salomonsson, Emma; Larumbe, Amaia; Tejler, Johan; Tullberg, Erik; Rydberg, Hanna; Sundin, Anders; Khabut, Areej; Frejd, Torbjorn; Lobsanov, Yuri D.; Rini, James M.; et al, From Biochemistry (2010), 49(44), 9518-9532, (Salomonsson et al., 2010).

[2] = target: galectin-3 (Homo sapiens, UniProt P17931); assay: Fluorescence anisotropy assay, affinity for galectin-3; type: binding; settings: compound as inhibitor of the interaction between galectin and a fluorescein tagged saccharide probe; read-out: Gal-3 Kd
Description: as §1

galectin-1, sequence (P09382 whole entry): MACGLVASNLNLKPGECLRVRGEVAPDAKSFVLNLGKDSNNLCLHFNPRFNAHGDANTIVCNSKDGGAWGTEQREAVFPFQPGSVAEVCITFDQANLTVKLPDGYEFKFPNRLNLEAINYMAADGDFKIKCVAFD
galectin-3, sequence (P17931 whole entry): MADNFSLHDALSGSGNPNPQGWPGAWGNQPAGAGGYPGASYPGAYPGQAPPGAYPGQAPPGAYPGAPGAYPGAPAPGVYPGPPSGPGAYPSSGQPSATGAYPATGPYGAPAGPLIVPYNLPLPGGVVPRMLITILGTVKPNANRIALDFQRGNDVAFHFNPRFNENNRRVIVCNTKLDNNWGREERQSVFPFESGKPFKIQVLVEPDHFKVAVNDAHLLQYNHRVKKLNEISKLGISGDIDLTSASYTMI

Row | Compound | Kd [1] | Kd [2]
1 | COC1C(n2cc(-c3nc(Cl)cs3)nn2)[C@@H](O)C(CO)O[C@H]1c1ccnn1-c1cc(Br)cnc1C(F)(F)F (stereo partly drawn) [Example 33, 5-Bromo-3-{5-{3-[4-(4-chlorothiazol-2-yl)-1H-1,2,3-triazol-1-yl]-3-deoxy-2-O-methyl-β-D-galactopyranosyl}-1H-1,2-pyrazol-1-yl}-2-(trifluoromethyl)pyridine] | 32 nM | 530 nM
2 | COC1C(n2cc(-c3csc(N)n3)nn2)[C@@H](O)C(CO)O[C@H]1c1ccnn1-c1cc(Cl)ccc1C(F)(F)F (stereo partly drawn) [Example 34, 1-{5-{3-[4-(2-Aminothiazol-4-yl)-1H-1,2,3-triazol-1-yl]-3-deoxy-2-O-methyl-β-D-galactopyranosyl}-1H-1,2-pyrazol-1-yl}-5-chloro-2-(trifluoromethyl)benzene] | 49 nM | 6700 nM
3 | COC1C(n2cc(-c3csc(O)n3)nn2)[C@@H](O)C(CO)O[C@H]1c1ccnn1-c1cc(Cl)ccc1C(F)(F)F (stereo partly drawn) [Example 35, 5-Chloro-1-{5-{3-deoxy-3-[4-(2-hydroxythiazol-4-yl)-1H-1,2,3-triazol-1-yl]-2-O-methyl-β-D-galactopyranosyl}-1H-1,2-pyrazol-1-yl}-2-(trifluoromethyl)benzene] | 31 nM | 4200 nM
4 | COC1C(n2cc(-c3csc(O)n3)nn2)[C@@H](O)C(CO)O[C@H]1c1ccnn1-c1cc(Cl)c(Cl)cc1C(F)(F)F (stereo partly drawn) [Example 36, 4,5-Dichloro-1-{5-{3-deoxy-3-[4-(2-hydroxythiazol-4-yl)-1H-1,2,3-triazol-1-yl]-2-O-methyl-β-D-galactopyranosyl}-1H-1,2-pyrazol-1-yl}-2-(trifluoromethyl)benzene] | 26 nM | 9400 nM
5 | COC1C(n2cc(-c3csc(O)n3)nn2)[C@@H](O)C(CO)O[C@H]1c1ccnn1-c1cc(Br)c(F)cc1C(F)(F)F (stereo partly drawn) [Example 37, 5-Bromo-1-{5-{3-deoxy-3-[4-(2-hydroxythiazol-4-yl)-1H-1,2,3-triazol-1-yl]-2-O-methyl-β-D-galactopyranosyl}-1H-1,2-pyrazol-1-yl}-4-fluoro-2-(trifluoromethyl)benzene] | 17 nM | 4700 nM

More lines, now with the values ahead:

Row | Kd [1] | Kd [2] | Compound
6 | 120 nM | 4900 nM | COC1C(n2cc(-c3cscn3)nn2)[C@@H](O)C(CO)O[C@H]1c1ccnn1-c1cc(Cl)ccc1C(F)(F)F (stereo partly drawn) [Example 38, 5-Chloro-1-{5-{3-deoxy-2-O-methyl-3-[4-(4-thiazolyl)-1H-1,2,3-triazol-1-yl]-β-D-galactopyranosyl}-1H-1,2-pyrazol-1-yl}-2-(trifluoromethyl)benzene]
7 | 200 nM | 320 nM | COC1C(n2cc(-c3nc(Cl)cs3)nn2)[C@@H](O)C(CO)O[C@H]1c1cc(C(N)=O)nn1-c1cc(Cl)ccc1C(F)(F)F (stereo partly drawn) [Example 39, 1-{3-Aminocarbonyl-5-{3-[4-(4-chlorothiazol-2-yl)-1H-1,2,3-triazol-1-yl]-3-deoxy-2-O-methyl-β-D-galactopyranosyl}-1H-1,2-pyrazol-1-yl}-5-chloro-2-(trifluoromethyl)benzene]
